Source: patent US11512053B2, “Arginine methyltransferase inhibitors and uses thereof” (priority 2013, dated 2022)
Counter-ions that a name gives are not always drawn. Like-named read-outs stand apart in the source and are kept apart here.

Biological target: full-length human PRMT6 (Flag- and His-tagged) (Homo sapiens, UniProt Q96LA8)
Assay: PRMT6 Biochemical Assay (3H-SAM Flashplate, peptide substrate)
Settings: read-out: Biochemical IC50 PRMT6
Outline: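 Flag/His-tagged full-length human PRMT6 (1 nM) preincubated with compound 30 min at room temperature in Bicine pH 7.6 buffer, then reaction started with 3H-SAM 200 nM plus unlabeled SAM 250 nM and biotinylated H4 36-50 peptide (K44me1) 75 nM; 2% DMSO. Quenched with 400 uM cold SAM; labeled peptide captured on streptavidin Flashplate, counted; % inhibition vs DMSO and 1 mM SAH controls fit by 3- or 4-parameter curve.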

[1] = single experiment or average of multiple experiments

full-length human PRMT6 (Flag- and His-tagged), sequence (Q96LA8 with tags, fused parts or gaps): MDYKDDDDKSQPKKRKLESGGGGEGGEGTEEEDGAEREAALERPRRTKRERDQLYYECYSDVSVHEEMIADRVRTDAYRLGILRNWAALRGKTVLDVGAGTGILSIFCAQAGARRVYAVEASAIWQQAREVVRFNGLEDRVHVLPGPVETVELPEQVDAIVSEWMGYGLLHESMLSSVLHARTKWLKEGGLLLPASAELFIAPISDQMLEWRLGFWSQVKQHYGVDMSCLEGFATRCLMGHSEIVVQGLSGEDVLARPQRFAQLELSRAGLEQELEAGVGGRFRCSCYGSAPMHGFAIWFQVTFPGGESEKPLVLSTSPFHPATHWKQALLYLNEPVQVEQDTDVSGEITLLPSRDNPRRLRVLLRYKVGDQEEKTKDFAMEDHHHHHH

IC50 [nM] | IC50 [1] [nM] | Compound
< 100 | 17.8 | CNCCN(C)Cc1c[nH]nc1C1CCC2(CCCC2)CC1 [Compound 48]
 | 30 | CN(CCN)Cc1c[nH]nc1C1CCCC1 [Compound 31]
< 100 | 63.1 | CNCCN(C)Cc1c[nH]nc1C1CCC(C)(C)C(C(=O)NCCC(C)C)C1 (stereo not drawn) [Compound 91]
< 100 | 19.9 | CNCCN(C)Cc1cnn(C)c1C1CCC2(CCCC2)CC1 [Compound 49]
 | 290 | CN(CCN)Cc1c[nH]nc1C1=CCCC1 [Compound 25]
 | 10 | CN(CCN)Cc1c[nH]nc1/C=C/c1ccc(F)cc1F [Compound 13]
101 to 1000 | 122 | CNCCN(C)Cc1c[nH]nc1C1CCC(C)(C)C(C(=O)NCC(C)C)C1 (stereo not drawn) [Compound 90]
 | 70 | CNCCN(C)Cc1c[nH]nc1C#Cc1cccc(OC)c1 [Compound 1]
< 100 | 12.4 | CNCCN(C)Cc1c[nH]nc1[C@H]1CC[C@@]2(CC1)CC(C)(C)CO2 [Compound 133, Methyl[2-(methylamino)ethyl]([3-[(5s,8s)-3,3-dimethyl-1-oxaspiro[4.5]decan-8-yl]-1H-pyrazol-4-yl]methyl)amine]
< 100 | 44 | CCC(CC)OC1CCC(c2n[nH]cc2CN(C)CCNC)CC1 (stereo not drawn) [Compound 70]
 | 20 | CNCCN(C)Cc1c[nH]nc1C1CCNCC1 [Compound 42]
 | 40 | CN(CCN)Cc1c[nH]nc1/C=C/c1cc(F)cc(F)c1 [Compound 15]
3010 to 10000 | 3410 | CNCCN(C)Cc1c[nH]nc1C1CC(COC)C(C)(C)C(COC)C1 (stereo not drawn) [Compound 86]
101 to 1000 | 155 | CNCCN(C)Cc1c[nH]nc1C1CCC(COCCOC)(COCCOC)CC1 [Compound 60]
< 100 | 69.4 | CNCCN(C)Cc1c[nH]nc1C1CCC(COC)(COC)CC1 [Compound 57]
 | 20 | CNCCN(C)Cc1c[nH]nc1/C=C/c1ccc(OC)cc1 [Compound 7]
< 100 | 40.4 | CNCCN(C)Cc1c[nH]nc1C1CCC(CCOC)CC1 (stereo not drawn) [Compound 55]
 | 510 | CN(CCN)Cc1c[nH]nc1C1CCC1 [Compound 26]
 | 40 | Cc1ccc(/C=C/c2n[nH]cc2CN(C)CCN)cc1 [Compound 8]
< 100 | 12.1 | CNCCN(C)Cc1c[nH]nc1C1CCC2(CC1)CC(C)OC(C)C2 (stereo not drawn) [Compound 63]
 | 150 | CN(CCN)Cc1c[nH]nc1/C=C/c1cccc(C(F)(F)F)c1 [Compound 16]
101 to 1000 | 128 | CNCCN(C)Cc1c[nH]nc1C1CC(C)(C)OC(C)(C)C1 [Compound 59]

IC50 [nM] | IC50 [1] [nM] | Compound
 | 20 | CN(CCN)Cc1c[nH]nc1/C=C/c1cccc(F)c1 [Compound 20]
101 to 1000 | 149 | CNCCN(C)Cc1c[nH]nc1[C@H]1CCC(C)(C)[C@@H](C(=O)NCCCOC)C1 [Compound 270]
< 100 | 61.8 | CNCCN(C)Cc1c[nH]nc1C1CCC(OC(C)C)CC1 (stereo not drawn) [Compound 56]
< 100 | 35.1 | CNCCN(C)Cc1c[nH]nc1[C@H]1CC[C@]2(CC1)CC(C)(C)CO2 [Compound 134, methyl[2-(methylamino)ethyl]([3-[(5r,8r)-3,3-dimethyl-1-oxaspiro[4.5]decan-8-yl]-1H-pyrazol-4-yl]methyl)amine]
< 100 | 23.9 | CNCCN(C)Cc1c[nH]nc1C1CCC2(CCCO2)CC1 (stereo not drawn) [Compound 51]
101 to 1000 | 107 | CNCCN(C)Cc1c[nH]nc1[C@@H]1CCC(C)(C)[C@@H](C(=O)NCCOC)C1 [Compound 269]
 | 20 | CN(CCN)Cc1n[nH]cc1C1CCCCC1 [Compound 33]
 | 10 | CN(CCN)Cc1c[nH]nc1/C=C/c1ccc(C(F)(F)F)cc1 [Compound 18]
< 100 | 38 | CNCCN(C)Cc1c[nH]nc1C1CCC(COC)CC1 (stereo not drawn) [Compound 53]
 | 10 | CNCCN(C)Cc1c[nH]nc1C1CCN(CC(C)C)CC1 [Compound 39, N^1-((3-(1-isobutylpiperidin-4-yl)-1H-pyrazol-4-yl)methyl)-N^1,N^2-dimethylethane-1,2-diamine]
 | 30 | CNCCN(C)Cc1c[nH]nc1C1CCN(C(=O)C(C)C)CC1 [Compound 34]
< 100 | 29 | CNCCN(C)Cc1c[nH]nc1C1CCC2(CCCCC2)OC1 (stereo not drawn) [Compound 62]
 | 20 | CN(CCN)Cc1n[nH]cc1C1CCC(N2CCOCC2)CC1 (stereo not drawn) [Compound 44, N^1-methyl-N^1-((4-(4-morpholinocyclohexyl)-1H-pyrazol-3-yl)methyl)ethane-1,2-diamine]
< 100 | 18 | CNCCN(C)Cc1c[nH]nc1C1CCC(Oc2ccccc2)CC1 (stereo not drawn) [Compound 67]
< 100 | 5.6 | CN(CCN)Cc1c[nH]nc1C1CCC2(CCCC2)CC1 [Compound 45]
< 100 | 38.2 | CNCCN(C)Cc1c[nH]nc1C1CCC2(CCOC2)CC1 (stereo not drawn) [Compound 54]
 | 170 | COC/C=C/c1n[nH]cc1CN(C)CCN [Compound 19]
< 100 | 24.3 | CNCCN(C)Cc1c[nH]nc1C1CCC(C)(C)CC1 [Compound 52]
 | 30 | CNCCN(C)Cc1c[nH]nc1/C=C/c1ccc(C(F)(F)F)cc1 [Compound 6]
< 100 | 108 | CNCCN(C)Cc1c[nH]nc1C1CCC(OCCOC)CC1 (stereo not drawn) [Compound 58]
 | 10 | CN(CCN)Cc1c[nH]nc1CCc1ccc(F)cc1 [Compound 23, N^1-((3-(4-fluorophenethyl)-1H-pyrazol-4-yl)methyl)-N^1-methylethane-1,2-diamine]
< 100 | 17.3 | CNCCN(C)Cc1cn(C)nc1C1CCC2(CCCC2)CC1 [Compound 47]

IC50 [nM] | IC50 [1] [nM] | Compound
< 100 | 73.9 | CNCCN(C)Cc1c[nH]nc1C1CCC(C)(C)[C@H](OCCCOC)C1 (stereo partly drawn) [Compound 272]
< 100 | 12.2 | CNCCN(C)Cc1c[nH]nc1C1CCC2(CCCCC2)CC1 [Compound 46]
< 100 | 49 | CNCCN(C)Cc1c[nH]nc1C1CCC(C)(C)C(C(=O)NCc2ccccc2)C1 (stereo not drawn) [Compound 92]
< 100 | 69.2 | CNCCN(C)Cc1c[nH]nc1C1CCC(C)(C)C(COCC(C)C)C1 (stereo not drawn) [Compound 95]
 | 10 | CN(CCN)Cc1c[nH]nc1C1CCC(C)(C)CC1 [Compound 38, N^1-((3-(4,4-dimethylcyclohexyl)-1H-pyrazol-4-yl)methyl)-N^1-methylethane-1,2-diamine]
< 100 | 71.9 | CNCCN(C)Cc1c[nH]nc1C1CCC(C)(C)C(C(=O)NCCCOC)C1 (stereo not drawn) [Compound 93]
< 100 | 40.5 | CNCCN(C)Cc1c[nH]nc1C1CCC(C)(C)[C@H](OCC2CCOCC2)C1 (stereo partly drawn) [Compound 273, ({3-[(3R)-4,4-dimethyl-3-(oxan-4-ylmethoxy)cyclohexyl]-1H-pyrazol-4-yl}methyl)(methyl)[2-(methylamino)ethyl]amine]
101 to 1000 | 121 | CNCCN(C)Cc1c[nH]nc1[C@@H]1CCC(C)(C)[C@@H](C(=O)NCCCOC)C1 [Compound 271, (1S,5R)—N-(3-methoxypropyl)-2,2-dimethyl-5-[4-({methyl[2-(methylamino)ethyl]amino}methyl)-1H-pyrazol-3-yl]cyclohexane-1-carboxamide]
 | 50 | COc1cccc(/C=C/c2n[nH]cc2CN(C)CCN)c1 [Compound 17]
< 100 | 20.6 | CNCCN(C)Cc1c[nH]nc1C1CCC(C(C)C)CC1 (stereo not drawn) [Compound 50]
 | 20 | CN(CCN)Cc1c[nH]nc1C1CCCCC1 [Compound 22]
 | 50 | COc1cc(/C=C/c2n[nH]cc2CN(C)CCN)cc(OC)c1 [Compound 11]
101 to 1000 | 141 | CNCCN(C)Cc1c[nH]nc1[C@H]1CCC(C)(C)[C@@H](C(=O)NCCOC)C1 [Compound 268]
< 100 | 49.1 | CNCCN(C)Cc1c[nH]nc1C1CCC(COC(C)C)(COC(C)C)CC1 [Compound 61]
 | 6590 | Cc1n[nH]cc1CN(C)CCN [Compound 30]
< 100 | 41.9 | CNCCN(C)Cc1c[nH]nc1C1CCC2(CCC(C)(C)CC2)OC1 (stereo not drawn) [Compound 65]
 | 10 | CC1CCC(c2c[nH]nc2CN(C)CCN)CC1 (stereo not drawn) [Compound 35]
 | 930 | CN(CCN)Cc1c[nH]nc1/C=C/c1cc(C(F)(F)F)cc(C(F)(F)F)c1 [Compound 14]
 | 20 | CNCCN(C)Cc1c[nH]nc1C1CCN(C(=O)Cc2ccccc2)CC1 [Compound 32]
3010 to 10000 | 3730 | CCOCC1CC(c2n[nH]cc2CN(C)CCNC)CC(COCC)C1(C)C (stereo not drawn) [Compound 87]

Compound | IC50 [nM] | IC50 [1] [nM]
CC(C)Cc1n[nH]cc1CN(C)CCN [Compound 28, N^1-((3-iso-butyl-1H-pyrazol-4-yl)methyl)-N^1-methylethane-1,2-diamine] |  | 80
CN(CCN)Cc1c[nH]nc1C(C)(C)C [Compound 27] |  | 2410
CNCCN(C)Cc1ccnn1C1CCC2(CC1)CC(C)(C)CO2 (stereo not drawn) [Compound 274, trifluoroacetate] | 101 to 1000 | 103
CNCCN(C)Cc1c[nH]nc1C1CCN(C(=O)CC(C)C)CC1 [Compound 40, 3-methyl-1-(4-(4-((methyl(2-(methylamino)ethyl)amino)methyl)-1H-pyrazol-3-yl)piperidin-1-yl)butan-1-one] |  | 20
CNCCN(C)Cc1c[nH]nc1C#Cc1ccc(F)cc1 [Compound 4] |  | 20
CN(CCN)Cc1c[nH]nc1C1=CCOCC1 [Compound 10] |  | 310
CC(C)c1n[nH]cc1CN(C)CCN [Compound 21] |  | 670
CN(CCN)Cc1c[nH]nc1/C=C/Cc1ccccc1 [Compound 24] |  | 180
CN(CCN)Cc1c[nH]nc1C1CC1 [Compound 12] |  | 1080
